Data from US11236088B2, “Heterocyclic compounds and their application in medicine” (KIND PHARMACEUTICAL, priority 2017, dated 2022).

What follows are molecules tested on MCF-7 cells (assay: Inhibitory effect on the growth of MCF-7 cells (CellTiter-Glo, 10 days)). Conditions: Homo sapiens, MCF7, 240 h, 10 days incubation, CellTiter-Glo chemiluminescence.
Assay type: cell-based
Method: Assay 2: Inhibitory effect of compounds of the present invention on the growth of MCF-7 cells by a cell drug inhibition experiment
1. Experimental Materials
1) Reagents: DMEM high glucose medium (Lonza #12-604F), FBS (BI #04-00F1ACS), antibiotics (Thermofisher #15070063), bovine insulin (Western reagent #11070-73-8), trypsin (Thermofisher #25200-056), CellTiter-Glo reagent (Promega #G7571)
2) Instruments: American MD-M5 microplate reader 5;
2. Experimental Procedures:
1) 100 μl of MCF-7 cells was added to a medium in a white opaque 96-well plate at a density of 5000 cells/ml in which the medium is DMEM high-glucose medium supplemented with 10% FBS. The cells were cultured in a 5% CO2 cell incubator at 37° C. for 24 hours.
2) Different concentrations of corresponding compounds were added to the 96-well plate for incubating MCF-7 cells. The cells were incubated for 10 days in a 5% CO2 cell incubator.
3) To each well of MCF-7 cells, 100 μl of CellTiter-Glo reagent was added and then set aside at room temperature for 10 minutes. The chemiluminescence signal was read using an MD-M5 microplate reader, and the data was processed using GraphPad Prism to calculate IC50 value.

| SMILES | IC50 [µM] |
| --- | --- |
| CCCN1CC(Oc2cc(F)c([C@@H]3c4ccc5[nH]ncc5c4CN(C)[C@H]3CC(C)C)c(F)c2)C1 [Example 16, (6S, 7S)-6-(2,6-difluoro-4-((1-propylazetidin-3-yl)oxy)phenyl)-7-isobutyl-8-methyl-6,7,8,9-tetrahydro-3H-pyrazolo [3,4-h]isoquinoline] | ≤ 0.001 |
| CCCCCN1CC(Oc2cc(F)c([C@@H]3c4ccc5[nH]ncc5c4CN(C)[C@H]3CC(C)C)c(F)c2)C1 [Example 19] | > 1 |
| CC(C)C[C@H]1[C@H](c2c(F)cc(NC3CN(CCCF)C3)cc2F)c2ccc3[nH]ncc3c2CN1C [Example 2, N-(3,5-difluoro-4-((6S, 7S)-7-isobutyl-8-methyl-6,7,8,9-tetrahydro-3H-pyrazolo [3,4-h]isoquinolin-6-yl)phenyl)-1-(3-fluoropropyl) azetidin-3-amine] | ≤ 0.001 |
| CN1Cc2c(ccc3[nH]ncc23)[C@@H](c2c(F)cc(OC3CN(CCCF)C3)cc2F)[C@@H]1CC1CC1 [Example 20, (6S, 7S)-7-(cyclopropylmethyl)-6-(2,6-difluoro-4-((1-(3-fluoropropyl)azetidin-3-yl)oxy)phenyl)-8-methyl-6,7,8,9-tetrahydro-3H-pyrazolo [3,4-h]isoquinoline] | > 1 |

Other lines, results leading:

| IC50 [µM] | SMILES |
| --- | --- |
| ≤ 0.001 | CCC(=O)N1CC(Oc2cc(F)c([C@@H]3c4ccc5[nH]ncc5c4CN(C)[C@H]3CC(C)C)c(F)c2)C1 [Example 32, 1-(3-(3,5-difluoro-4-((6S, 7S)-7-isobutyl-8-methyl-6,7,8,9-tetrahydro-3H-pyrazolo [3,4-h]isoquinolin-6-yl)phenoxy)azetidin-1-yl) propan-1-one] |
| > 1 | CCCCCN1CC(Oc2cc(F)c([C@@H]3c4ccc5[nH]ncc5c4CN(C)[C@H]3CC3CC3)c(F)c2)C1 [Example 24, (6S, 7S)-7-cyclopropylmethyl-6-(2,6-difluoro-4-((1-pentylazetidin-3-yl)oxy)phenyl)-8-methyl-6,7,8,9-tetrahydro-3H-pyrazolo [3,4-h]isoquinoline] |
| > 1 | CC(C)CN1CC(Sc2cc(F)c([C@@H]3c4ccc5[nH]ncc5c4CN(C)[C@H]3CC3CC3)c(F)c2)C1 [Example 28, (6S, 7S)-6-(4-((1-isobutylazetidin-3-yl)thio)-2,6-difluorophenyl)-7-cyclopropylmethyl-8-methyl-6,7,8,9-tetrahydro-3H-pyrazolo [3,4-h]isoquinoline] |
